Laboratory results published in patent US11034725B2, “Compositions and methods for treating cardiovascular disease” (Genentech, Inc., priority 2016, dated 2021).
Like-named read-outs stand apart in the source and are kept apart here. Bridge positions count the residues as written; N and C are the ends. Square brackets hold non-standard residues; d marks the D form. Peptide text beside a SMILES is read from it. * marks the point of attachment. Trp(6-Me) = Cc1ccc2c(C[C@H](N)C(=O)O)c[nH]c2c1; hArg = N=C(N)NCCCC[C@H](N)C(=O)O; Pentanoyl = CCCCC(=O)*; Aoc = NCCCCCCCC(=O)O; Ava = NCCCCC(=O)O

Columns and labels:
PCSK9Δhelix = biological target: T1, PCSK9Δhelix (Homo sapiens, UniProt Q8NBP7); test: PCSK9Δhelix/Ab20 TR-FRET binding assay; details: for IC50: TR-FRET, read-out: PCSK9Δhelix/Ab20 IC50
T1 construct: Human PCSK9 construct M1-Q692 with an engineered TEV site (residue deletion Y166, R167); made in house; host or cells: CHO
T1 sequence (Q8NBP7 with tags, fused parts or gaps limits assumed): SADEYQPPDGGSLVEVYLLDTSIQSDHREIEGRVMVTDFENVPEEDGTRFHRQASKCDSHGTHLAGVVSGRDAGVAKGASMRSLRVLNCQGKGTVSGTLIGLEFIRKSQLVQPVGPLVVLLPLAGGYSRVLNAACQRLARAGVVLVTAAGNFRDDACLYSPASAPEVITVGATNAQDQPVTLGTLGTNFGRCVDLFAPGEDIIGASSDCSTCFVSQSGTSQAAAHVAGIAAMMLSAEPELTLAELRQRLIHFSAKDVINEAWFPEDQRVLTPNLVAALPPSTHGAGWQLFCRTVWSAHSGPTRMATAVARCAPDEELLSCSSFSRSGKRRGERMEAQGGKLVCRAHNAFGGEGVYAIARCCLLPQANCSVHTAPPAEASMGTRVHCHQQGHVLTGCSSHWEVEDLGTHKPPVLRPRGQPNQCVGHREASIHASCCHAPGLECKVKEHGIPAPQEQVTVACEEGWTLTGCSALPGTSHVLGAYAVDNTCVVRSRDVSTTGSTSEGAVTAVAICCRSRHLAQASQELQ
T1 sequence (Q8NBP7 31-152 partner limits assumed): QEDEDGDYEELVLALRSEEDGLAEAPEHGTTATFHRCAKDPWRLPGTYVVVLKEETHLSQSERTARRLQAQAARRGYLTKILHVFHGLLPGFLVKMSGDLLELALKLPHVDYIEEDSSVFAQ

PCSK9 = PCSK9 (Homo sapiens, UniProt Q8NBP7); test: PCSK9/EGF(A) TR-FRET binding assay; details: for IC50: TR-FRET, read-out: PCSK9/EGF(A) IC50
Sequence of PCSK9 (Q8NBP7 153-692): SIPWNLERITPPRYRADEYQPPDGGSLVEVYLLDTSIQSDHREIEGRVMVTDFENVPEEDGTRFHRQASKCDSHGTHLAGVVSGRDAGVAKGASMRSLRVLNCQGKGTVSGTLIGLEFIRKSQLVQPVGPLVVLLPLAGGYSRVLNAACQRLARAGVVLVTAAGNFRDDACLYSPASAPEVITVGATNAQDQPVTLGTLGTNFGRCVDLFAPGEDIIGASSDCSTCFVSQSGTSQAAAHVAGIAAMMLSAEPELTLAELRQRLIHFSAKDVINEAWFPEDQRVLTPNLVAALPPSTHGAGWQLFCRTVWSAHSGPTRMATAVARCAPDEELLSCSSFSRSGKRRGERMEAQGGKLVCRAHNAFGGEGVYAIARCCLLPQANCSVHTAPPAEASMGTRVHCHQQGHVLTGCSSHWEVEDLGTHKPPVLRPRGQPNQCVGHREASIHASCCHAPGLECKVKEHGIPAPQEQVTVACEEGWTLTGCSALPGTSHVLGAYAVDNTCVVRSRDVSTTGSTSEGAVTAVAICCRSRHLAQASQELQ
Sequence of PCSK9 (Q8NBP7 31-152 partner limits assumed): as the sequence (Q8NBP7 31-152 partner limits assumed) above

His-EGF(A)-Fc = His-EGF(A)-Fc TR-FRET counterscreen
[1] = Table 8D, disulfide-cyclized extension peptides
[2] = TR-FRET counterscreen, Table 8D, * = some inhibition at highest concentrations, not sufficient to fit an IC50
[3] = TR-FRET counterscreen, Table 8E, additional compounds

Compound	IC50 (PCSK9Δhelix; [1]) [µM]	IC50 (PCSK9; [1]) [µM]	IC50 (His-EGF(A)-Fc; [2]) [µM]	IC50 (PCSK9Δhelix; Example 7) [µM]	IC50 (PCSK9; Example 7) [µM]	IC50 (His-EGF(A)-Fc; counterscreen, Example 7) [µM]	further results
CC[C@H](C)[C@@H]1NC(=O)[C@H](CCCCNC(=N)N)NC(=O)[C@H](CCC(N)=O)NC(=O)[C@H](CC(C)C)NC(=O)[C@H](CC(N)=O)NC(=O)[C@H](Cc2c[nH]c3ccccc23)NC(=O)[C@@H]2CCCN2C(=O)[C@H](CC(C)C)NC(=O)[C@H](CCCNC(=N)N)NC(=O)[C@@H](NC(C)=O)CSSC[C@@H](C(N)=O)NC(=O)[C@@H]2CCCN2C(=O)[C@H](CC(C)C)NC(=O)CNC1=O [Compound 117] (Ac-CRLPWNLQ[hArg]IGLPC-NH2; disulfide 1-14)	0.334	> 50	> 50				
CC(=O)N[C@H]1CSSC[C@@H](C(N)=O)NC(=O)[C@@H]2CCCN2C(=O)[C@H](CC(C)C)NC(=O)CNC(=O)[C@H](C)NC(=O)[C@H](CCCNC(=N)N)NC(=O)[C@H](CCC(N)=O)NC(=O)[C@H](CC(C)C)NC(=O)[C@H](CC(N)=O)NC(=O)[C@H](Cc2c[nH]c3ccccc23)NC(=O)[C@@H]2CCCN2C(=O)[C@H](CC(C)C)NC(=O)[C@H](CCCNC(=N)N)NC1=O [Compound 71] (Ac-CRLPWNLQRAGLPC-NH2; disulfide 1-14)	49.5	> 50	> 50				
CC[C@H](C)[C@@H]1NC(=O)[C@H](CCCNC(=N)N)NC(=O)[C@H](CCCCN)NC(=O)[C@H](CC(C)C)NC(=O)[C@H](CC(N)=O)NC(=O)[C@H](Cc2c[nH]c3ccccc23)NC(=O)[C@H](CC(C)C)NC(=O)[C@@H](NC(=O)[C@@H](N)Cc2c[nH]c3ccccc23)CSSC[C@@H](C(=O)N[C@@H](Cc2c[nH]c3ccccc23)C(=O)N[C@@H](Cc2ccccc2)C(N)=O)NC(=O)[C@H](CCC(N)=O)NC(=O)[C@H](CO)NC(=O)CNC1=O [Compound 89] (H-WCLWNLKRIGSQCWF-NH2; disulfide 2-13)	2.98	6.9	38.4				
Ac-TVFTSWEEYLDWVGSGGKLWNLGRV-NH2 [Compound 9]				0.065	0.39	> 50	
Ac-DLMPANLVRIGLLR-NH2 [Compound 41]				> 49.5	> 50	> 50	
Ac-DLMPWNLVRIG-NH2 [Compound 48]				≥ 49.5	> 50	> 50	
CCCCC(=O)N[C@@H](Cc1c[nH]c2cc(C)ccc12)C(=O)N[C@@H](CC(N)=O)C(=O)N[C@@H](CC(C)C)C(=O)N[C@H](C(=O)N[C@@H](CCCNC(=N)N)C(=O)N[C@H](C(=O)NCC(=O)N[C@@H](CC(C)C)C(=O)N[C@H](C(=O)N[C@@H](CCCNC(=N)N)C(N)=O)[C@@H](C)O)[C@@H](C)CC)C(C)C [Compound 175] (Pentanoyl-[Trp(6-Me)]NLVRIGLTR-NH2)							IC50 (PCSK9Δhelix; Table 8E, additional compounds): 39 µM; IC50 (PCSK9; Table 8E, additional compounds): ≥ 50 µM; IC50 (His-EGF(A)-Fc; [3]): ≥ 50 µM
Ac-DLMPWNAVRIGLLR-NH2 [Compound 61]				> 49.5	> 50	> 50	
CC[C@H](C)[C@@H]1NC(=O)[C@H](CCCNC(=N)N)NC(=O)[C@H](CCC(N)=O)NC(=O)[C@H](CC(C)C)NC(=O)[C@H](CC(N)=O)NC(=O)[C@H](Cc2c[nH]c3ccccc23)NC(=O)[C@@H]2CCCN2C(=O)[C@H](CC(C)C)NC(=O)[C@H](CCCNC(=N)N)NC(=O)[C@@H](NC(C)=O)CSSC[C@@H](C(N)=O)NC(=O)[C@H]2CCCN2C(=O)[C@H](CC(C)C)NC(=O)CNC1=O [Compound 99] (Ac-CRLPWNLQRIGL[dP]C-NH2; disulfide 1-14)	1.3	> 50	> 50				
CC(=O)N[C@H]1CSSC[C@@H](C(N)=O)NC(=O)CCCCCCCNC(=O)[C@H](CCCNC(=N)N)NC(=O)[C@H](CCC(N)=O)NC(=O)[C@H](CC(C)C)NC(=O)[C@H](CC(N)=O)NC(=O)[C@H](Cc2c[nH]c3ccccc23)NC(=O)[C@@H]2CCCN2C(=O)[C@H](CC(C)C)NC(=O)[C@H](CCCNC(=N)N)NC1=O [Compound 86] (Ac-CRLPWNLQR[Aoc]C-NH2; disulfide 1-11)	> 50	> 50	> 50				inhibition in the PCSK9Δhelix/Ab20 binding assay (PCSK9Δhelix): removes inhibition
Ac-DLMPWNLVRIGALR-NH2 [Compound 56]				17.1	> 50	> 50	
CC[C@H](C)[C@@H]1NC(=O)[C@H](CCCNC(=N)N)NC(=O)[C@H](CCCCN)NC(=O)[C@H](CC(C)C)NC(=O)[C@H](CC(N)=O)NC(=O)[C@H](Cc2c[nH]c3ccccc23)NC(=O)[C@@H](NC(=O)CNC(=O)CNC(=O)[C@H](CO)NC(=O)CNC(=O)[C@@H](NC(=O)[C@H](Cc2c[nH]c3ccccc23)NC(=O)[C@H](CC(=O)O)NC(=O)[C@H](CC(C)C)NC(=O)[C@H](Cc2ccc(O)cc2)NC(=O)[C@H](CCC(=O)O)NC(=O)[C@H](CCC(=O)O)NC(=O)[C@H](Cc2c[nH]c3ccccc23)NC(=O)[C@H](CO)NC(=O)[C@@H](NC(=O)[C@H](Cc2ccccc2)NC(=O)[C@@H](NC(=O)[C@@H](NC(C)=O)[C@@H](C)O)C(C)C)[C@@H](C)O)C(C)C)CSSC[C@@H](C(N)=O)NC(=O)CNC(=O)[C@H](CCC(N)=O)NC(=O)[C@H](CO)NC(=O)CNC1=O [Compound 14] (Ac-TVFTSWEEYLDWVGSGGCWNLKRIGSQGC-NH2; disulfide 18-29)				0.001	0.009	> 50	inhibition in the PCSK9Δhelix/Ab20 binding assay (PCSK9Δhelix): potent inhibitors; inhibition in the PCSK9/EGF(A) binding assay (PCSK9): potent inhibitors
CC[C@H](C)[C@@H]1NC(=O)[C@H](CCCNC(=N)N)NC(=O)[C@H](CCC(N)=O)NC(=O)[C@H](CC(C)C)NC(=O)[C@H](CC(N)=O)NC(=O)[C@H](Cc2c[nH]c3ccccc23)NC(=O)[C@@H]2CCCN2C(=O)[C@H](CC(C)C)NC(=O)[C@H](CCCNC(=N)N)NC(=O)[C@@H](NC(C)=O)CSSC[C@@H](C(N)=O)NC(=O)CCCCNC1=O [Compound 115] (Ac-CRLPWNLQRI[Ava]C-NH2; disulfide 1-12)	> 50	> 50	> 50				
CC[C@H](C)[C@H](NC(=O)[C@H](CCCCNC(=N)N)NC(=O)[C@H](CCCCN)NC(=O)[C@H](CC(C)C)NC(=O)[C@H](CC(N)=O)NC(=O)[C@H](Cc1c[nH]c2ccccc12)NC(=O)CNC(=O)[C@@H]1CCCN1C(=O)[C@H](Cc1ccccc1)NC(=O)[C@H](C)NC(=O)[C@H](Cc1ccccc1)NC(=O)[C@H](CO)NC(C)=O)C(=O)NCC(=O)N[C@@H](CC(C)C)C(=O)N[C@@H](CC(C)C)C(=O)N[C@@H](CCCNC(=N)N)C(N)=O [Compound 232] (Ac-SFAFPGWNLK[hArg]IGLLR-NH2)							IC50 (PCSK9Δhelix; Table 8E, additional compounds): 13 µM; IC50 (PCSK9; Table 8E, additional compounds): 0.93 µM; IC50 (His-EGF(A)-Fc; [3]): ≥ 50 µM
CC[C@H](C)[C@@H]1NC(=O)[C@H](CCCNC(=N)N)NC(=O)[C@H](CCC(N)=O)NC(=O)[C@H](CC(C)C)NC(=O)[C@H](CC(N)=O)NC(=O)[C@H](Cc2c[nH]c3ccccc23)NC(=O)[C@H](C)NC(=O)[C@H](CC(C)C)NC(=O)[C@H](CCCNC(=N)N)NC(=O)[C@@H](NC(C)=O)CSSC[C@@H](C(N)=O)NC(=O)[C@@H]2CCCN2C(=O)[C@H](CC(C)C)NC(=O)CNC1=O [Compound 77] (Ac-CRLAWNLQRIGLPC-NH2; disulfide 1-14)	6.02	> 50	> 50				
Ac-TVFTSWEEYLDWVGSGKLWNLGRV-NH2 [Compound 1]				0.021		> 50	inhibition in the PCSK9Δhelix/Ab20 binding assay (PCSK9Δhelix): superior activity; inhibition in the PCSK9/EGF(A) binding assay (PCSK9): comparable activity to Pep2-8
